{
  "source": "patent US20230286973A1",
  "about": "“PROTEIN SECRETION INHIBITORS” (KEZAR LIFE SCIENCES, priority 2020, published 2023)",
  "key": {"[1]": {"test_system": "TNFα-FL/Gaussia Luciferase", "test": "Dox Induced TNFα-FL-Gluc Assay", "assay_type": "cell-based", "conditions": "for IC50: 24 hr Dox induction, 293FRT/TO cells, mean, read-out: 24 hr Dox Inducible TNFaFLGluc 293FRT/TO: Mean IC50; for 24 hr Dox Inducible TNFaFLGluc 293FRT/TO: TNF/PD1: ratio of TNFaFLGluc IC50 to PD1ssGluc IC50, '<=>' given where both are I.A.", "summary_of_the_method": "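Flp-In 293 T-REx cells stably carrying doxycycline-inducible full-length TNFα (aa 1-233) fused to Gaussia luciferase. Plated the day before, then treated with compound dilutions in doxycycline-containing medium at 37° C, 5% CO2.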"}, "[2]": {"test_system": "multiple myeloma cell line U266B1", "test": "U266 Cell Viability Assay", "assay_type": "cell-based, human", "conditions": "Homo sapiens, U-266, 48 h, U266B1 cells, Celltiter-Glo", "summary_of_the_method": "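U266B1 multiple myeloma cells in RPMI 1640/10% FBS were treated with compound dilutions for 48 h at 37 °C, 5% CO2. Viability was measured by CellTiter-Glo luminescence; compounds drawn without stereochemistry were tested as stereoisomer mixtures.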"}, "[3]": {"test": "Liver Microsome Stability Assay (human)", "conditions": "human liver microsomes, with NADPH, 1.0 uM compound"}, "[4]": {"test_system": "PD1-ss+10aa/Gaussia Luciferase", "test": "Dox-Induced PD1-ss-Gluc Assay", "assay_type": "cell-based", "conditions": "24 hr Dox induction; 293FRT/TO cells; mean; read-out: 24 hr Dox Inducible PD1ssGluc 293FRT/TO: Mean IC50", "summary_of_the_method": "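Compounds were added in DMSO/media with doxycycline and incubated at 37 °C, 5% CO2, on 293 T-REx cells plated one day earlier. These cells stably express, under tetracycline-regulated control, a Gaussia luciferase fused to the PD1 signal peptide plus 10 residues. Structures drawn without stereochemistry were tested as stereoisomer mixtures.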"}, "[5]": {"test_system": "HER3-ss+4aa/Gaussia Luciferase", "test": "Dox-Induced Her3-ss-Gluc Assay", "assay_type": "cell-based", "conditions": "24 hr Dox induction; 293FRT/TO cells; mean; read-out: 24 hr Dox Inducible Her3(ss + 4)Gluc 293FRT/TO: Mean IC50", "summary_of_the_method": "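Stable Flp-In 293 T-REx cells carried a doxycycline-inducible HER3 signal sequence (+4 aa) fused to Gaussia luciferase. Cells were plated the day before the assay. Compound dilutions in DMSO/media containing doxycycline were then added, and plates were incubated at 37 °C, 5% CO2.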"}, "[6]": {"test": "Liver Microsome Stability Assay (rat)", "conditions": "rat liver microsomes, with NADPH, 1.0 uM compound"}, "[7]": {"test": "Liver Microsome Stability Assay (monkey)", "conditions": "monkey liver microsomes, with NADPH, 1.0 uM compound"}, "[8]": {"test_system": "multiple myeloma cell line NCI-H929", "test": "H929 Cell Viability Assay", "assay_type": "cell-based, human", "conditions": "Homo sapiens, NCI-H929, 48 h, NCI-H929 cells, Celltiter-Glo", "summary_of_the_method": "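NCI-H929 cells in RPMI 1640 with 10% FBS were treated with compound dilutions for 48 h at 37° C, 5% CO2. Viability was read by CellTiter-Glo luminescence. Undefined stereocentres denote stereoisomer mixtures.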"}, "[9]": {"test": "Liver Microsome Stability Assay (mouse)", "conditions": "mouse liver microsomes, with NADPH, 1.0 uM compound"}, "[10]": {"test_system": "IL-2-FL/Gaussia Luciferase", "test": "Dox Induced IL2-FL-Gluc Assay", "assay_type": "cell-based", "conditions": "for IC50: 24 hr Dox induction, 293FRT/TO cells, mean, read-out: 24 hr Dox Inducible IL2FLGluc 293FRT/TO: Mean IC50; for 24 hr Dox Inducible IL2FLGluc 293FRT/TO: IL2/PD1: ratio of IL2FLGluc IC50 to PD1ssGluc IC50, '<=>' given where both are I.A.", "summary_of_the_method": "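Stable Flp-In 293 T-REx cells carrying doxycycline-inducible full-length IL-2 (aa 1-153) fused to Gaussia luciferase, plated the day before assay. Compound dilutions added in medium containing doxycycline, incubated at 37 °C, 5% CO2. Undefined stereocentres mean data refer to stereoisomer mixtures.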"}},
  "data": [
    {"smiles": "CCc1ccc(N2CCC[C@@H]2c2csc(NC(=O)c3cccn3CC3CCOCC3)n2)nc1", "note": "[Compound C85, (R)-N-(4-(1-(5-ethylpyridin-2-yl)pyrrolidin-2-yl)thiazol-2-yl)-1-((tetrahydro-2H-pyran-4-yl)methyl)-1H-pyrrole-2-carboxamide]", "values": [
      {"measurement": "IC50", "setting": "[1]", "result": 1.2, "unit": "µM"},
      {"measurement": "24 hr Dox Inducible TNFaFLGluc 293FRT/TO: TNF/PD1", "setting": "[1]", "result": 9.53},
      {"measurement": "EC50", "setting": "[2]", "result": "> 25", "unit": "µM"},
      {"measurement": "Liver Microsome Stability (Multiple Species): Human - % Remaining after 30 min w/NADPH", "setting": "[3]", "result": 1.61, "unit": "%"},
      {"measurement": "IC50", "setting": "[4]", "result": 0.126, "unit": "µM"},
      {"measurement": "IC50", "setting": "[5]", "result": 0.257, "unit": "µM"},
      {"measurement": "Liver Microsome Stability (Multiple Species): Rat - % Remaining after 30 min w/NADPH", "setting": "[6]", "result": 11.2, "unit": "%"},
      {"measurement": "Liver Microsome Stability (Multiple Species): Monkey - % Remaining after 30 min w/NADPH", "setting": "[7]", "result": 0.21, "unit": "%"},
      {"measurement": "EC50", "setting": "[8]", "result": 6.12, "unit": "µM"},
      {"measurement": "Liver Microsome Stability (Multiple Species): Mouse - % Remaining after 30 min w/NADPH", "setting": "[9]", "result": 21.3, "unit": "%"},
      {"measurement": "IC50", "setting": "[10]", "result": 0.279, "unit": "µM"},
      {"measurement": "24 hr Dox Inducible IL2FLGluc 293FRT/TO: IL2/PD1", "setting": "[10]", "result": 2.2}
    ]},
    {"smiles": "N#Cc1ccccc1Cn1cccc1C(=O)Nc1nc([C@H]2CCCN2c2ccccc2)cs1", "note": "[Compound C86, (R)-1-(2-cyanobenzyl)-N-(4-(1-phenylpyrrolidin-2-yl)thiazol-2-yl)-1H-pyrrole-2-carboxamide]", "values": [
      {"measurement": "IC50", "setting": "[1]", "result": "> 25", "unit": "µM"},
      {"measurement": "24 hr Dox Inducible TNFaFLGluc 293FRT/TO: TNF/PD1", "setting": "[1]", "result": ">8.38"},
      {"measurement": "EC50", "setting": "[2]", "result": "> 25", "unit": "µM"},
      {"measurement": "Liver Microsome Stability (Multiple Species): Human - % Remaining after 30 min w/NADPH", "setting": "[3]", "result": 27.3, "unit": "%"},
      {"measurement": "IC50", "setting": "[4]", "result": 2.98, "unit": "µM"},
      {"measurement": "IC50", "setting": "[5]", "result": 1.11, "unit": "µM"},
      {"measurement": "Liver Microsome Stability (Multiple Species): Rat - % Remaining after 30 min w/NADPH", "setting": "[6]", "result": 20.2, "unit": "%"},
      {"measurement": "Liver Microsome Stability (Multiple Species): Monkey - % Remaining after 30 min w/NADPH", "setting": "[7]", "result": 15, "unit": "%"},
      {"measurement": "EC50", "setting": "[8]", "result": "> 25", "unit": "µM"},
      {"measurement": "Liver Microsome Stability (Multiple Species): Mouse - % Remaining after 30 min w/NADPH", "setting": "[9]", "result": 43.5, "unit": "%"},
      {"measurement": "IC50", "setting": "[10]", "result": 2.38, "unit": "µM"},
      {"measurement": "24 hr Dox Inducible IL2FLGluc 293FRT/TO: IL2/PD1", "setting": "[10]", "result": 0.8}
    ]},
    {"smiles": "C[C@@H](CC#N)Cn1cccc1C(=O)Nc1nc([C@H]2CCCN2c2ccccc2)cs1", "note": "[Compound C87, 1-((S)-3-cyano-2-methylpropyl)-N-(4-((R)-1-phenylpyrrolidin-2-yl)thiazol-2-yl)-1H-pyrrole-2-carboxamide]", "values": [
      {"measurement": "IC50", "setting": "[1]", "result": 0.731, "unit": "µM"},
      {"measurement": "24 hr Dox Inducible TNFaFLGluc 293FRT/TO: TNF/PD1", "setting": "[1]", "result": 9.32},
      {"measurement": "EC50", "setting": "[2]", "result": "> 25", "unit": "µM"},
      {"measurement": "Liver Microsome Stability (Multiple Species): Human - % Remaining after 30 min w/NADPH", "setting": "[3]", "result": 12.8, "unit": "%"},
      {"measurement": "IC50", "setting": "[4]", "result": 0.0784, "unit": "µM"},
      {"measurement": "IC50", "setting": "[5]", "result": 0.129, "unit": "µM"},
      {"measurement": "Liver Microsome Stability (Multiple Species): Rat - % Remaining after 30 min w/NADPH", "setting": "[6]", "result": 6.85, "unit": "%"},
      {"measurement": "Liver Microsome Stability (Multiple Species): Monkey - % Remaining after 30 min w/NADPH", "setting": "[7]", "result": 0.21, "unit": "%"},
      {"measurement": "EC50", "setting": "[8]", "result": 4.05, "unit": "µM"},
      {"measurement": "Liver Microsome Stability (Multiple Species): Mouse - % Remaining after 30 min w/NADPH", "setting": "[9]", "result": 14.2, "unit": "%"},
      {"measurement": "IC50", "setting": "[10]", "result": 0.238, "unit": "µM"},
      {"measurement": "24 hr Dox Inducible IL2FLGluc 293FRT/TO: IL2/PD1", "setting": "[10]", "result": 3}
    ]},
    {"smiles": "C[C@H](CC#N)Cn1cccc1C(=O)Nc1nc([C@H]2CCCN2c2ccccc2)cs1", "note": "[Compound C88, 1-((R)-3-cyano-2-methylpropyl)-N-(4-((R)-1-phenylpyrrolidin-2-yl)thiazol-2-yl)-1H-pyrrole-2-carboxamide]", "values": [
      {"measurement": "IC50", "setting": "[1]", "result": 5.93, "unit": "µM"},
      {"measurement": "24 hr Dox Inducible TNFaFLGluc 293FRT/TO: TNF/PD1", "setting": "[1]", "result": 10.2},
      {"measurement": "EC50", "setting": "[2]", "result": "> 25", "unit": "µM"},
      {"measurement": "Liver Microsome Stability (Multiple Species): Human - % Remaining after 30 min w/NADPH", "setting": "[3]", "result": 15.7, "unit": "%"},
      {"measurement": "IC50", "setting": "[4]", "result": 0.581, "unit": "µM"},
      {"measurement": "IC50", "setting": "[5]", "result": 0.942, "unit": "µM"},
      {"measurement": "Liver Microsome Stability (Multiple Species): Rat - % Remaining after 30 min w/NADPH", "setting": "[6]", "result": 5.31, "unit": "%"},
      {"measurement": "Liver Microsome Stability (Multiple Species): Monkey - % Remaining after 30 min w/NADPH", "setting": "[7]", "result": 1.91, "unit": "%"},
      {"measurement": "EC50", "setting": "[8]", "result": 21.8, "unit": "µM"},
      {"measurement": "Liver Microsome Stability (Multiple Species): Mouse - % Remaining after 30 min w/NADPH", "setting": "[9]", "result": 14.8, "unit": "%"},
      {"measurement": "IC50", "setting": "[10]", "result": 1.9, "unit": "µM"},
      {"measurement": "24 hr Dox Inducible IL2FLGluc 293FRT/TO: IL2/PD1", "setting": "[10]", "result": 3.3}
    ]},
    {"smiles": "CC(C#N)CCn1cccc1C(=O)Nc1nc([C@H]2CCCN2c2ccccc2)cs1", "note": "(stereo partly drawn) [Compound C89, 1-(3-cyanobutyl)-N-(4-((R)-1-phenylpyrrolidin-2-yl)thiazol-2-yl)-1H-pyrrole-2-carboxamide]", "values": [
      {"measurement": "IC50", "setting": "[1]", "result": 14.5, "unit": "µM"},
      {"measurement": "24 hr Dox Inducible TNFaFLGluc 293FRT/TO: TNF/PD1", "setting": "[1]", "result": 12.3},
      {"measurement": "EC50", "setting": "[2]", "result": "> 25", "unit": "µM"},
      {"measurement": "Liver Microsome Stability (Multiple Species): Human - % Remaining after 30 min w/NADPH", "setting": "[3]", "result": 24, "unit": "%"},
      {"measurement": "IC50", "setting": "[4]", "result": 1.18, "unit": "µM"},
      {"measurement": "IC50", "setting": "[5]", "result": 1.79, "unit": "µM"},
      {"measurement": "Liver Microsome Stability (Multiple Species): Rat - % Remaining after 30 min w/NADPH", "setting": "[6]", "result": 5.16, "unit": "%"},
      {"measurement": "Liver Microsome Stability (Multiple Species): Monkey - % Remaining after 30 min w/NADPH", "setting": "[7]", "result": 0.31, "unit": "%"},
      {"measurement": "EC50", "setting": "[8]", "result": "> 25", "unit": "µM"},
      {"measurement": "Liver Microsome Stability (Multiple Species): Mouse - % Remaining after 30 min w/NADPH", "setting": "[9]", "result": 16.5, "unit": "%"},
      {"measurement": "IC50", "setting": "[10]", "result": 2.86, "unit": "µM"},
      {"measurement": "24 hr Dox Inducible IL2FLGluc 293FRT/TO: IL2/PD1", "setting": "[10]", "result": 2.4}
    ]}
  ]
}
